Laboratory results as given in the kinase profiling compilation of Christmann-Franck et al. (2016).

Assays:
Test in all cases: KINOMEscan competition binding
Settings in all cases: compound 10.0 µM
CDKL3 (human) = CDKL3 (human) (UniProt Q8IVW4)
PRKAA2 (human) = PRKAA2 (human) (UniProt P54646)
MST4 (human) = MST4 (human) (UniProt Q9P289)
ADCK4 (human) = ADCK4 (human) (UniProt Q96D53)
RIPK1 (human) = RIPK1 (human) (UniProt Q13546)
KIT (human) = KIT (human) (UniProt P10721)
DCLK1 (human) = DCLK1 (human) (UniProt O15075)
MYO3B (human) = MYO3B (human) (UniProt Q8WXR4)
CDK4 CCND3 (human) = CDK4 CCND3 (human) (UniProt P11802+P30281)
RPS6KB1 (human) = RPS6KB1 (human) (UniProt P23443)
MAP3K3 (human) = MAP3K3 (human) (UniProt Q99759)
BTK (human) = BTK (human) (UniProt Q06187)
EPHA1 (human) = EPHA1 (human) (UniProt P21709)
ACVR2A (human) = ACVR2A (human) (UniProt P27037)
GSK3A (human) = GSK3A (human) (UniProt P49840)
MAPK1 (human) = MAPK1 (human) (UniProt P28482)
CDK15 (human) = CDK15 (human) (UniProt Q96Q40)
STK17A (human) = STK17A (human) (UniProt Q9UEE5)
DAPK3 (human) = DAPK3 (human) (UniProt O43293)
FES (human) = FES (human) (UniProt P07332)
CAMK2G (human) = CAMK2G (human) (UniProt Q13555)
FGFR2 (human) = FGFR2 (human) (UniProt P21802)
MAP2K4 (human) = MAP2K4 (human) (UniProt P45985)
GAK (human) = GAK (human) (UniProt O14976)
PRKX (human) = PRKX (human) (UniProt P51817)
[1] = molecular target: JAK2 JH1 catalytic (human) (UniProt O60674)
MAP2K3 (human) = MAP2K3 (human) (UniProt P46734)
MINK1 (human) = MINK1 (human) (UniProt Q8N4C8)
MARK1 (human) = MARK1 (human) (UniProt Q9P0L2)
PIK3CD (human) = PIK3CD (human) (UniProt O00329)
MAST1 (human) = MAST1 (human) (UniProt Q9Y2H9)
CAMK2B (human) = CAMK2B (human) (UniProt Q13554)
GRK7 (human) = GRK7 (human) (UniProt Q8WTQ7)
CAMK4 (human) = CAMK4 (human) (UniProt Q16566)
PHKG1 (human) = PHKG1 (human) (UniProt Q16816)
RIOK3 (human) = RIOK3 (human) (UniProt O14730)
STK38L (human) = STK38L (human) (UniProt Q9Y2H1)
AURKA (human) = AURKA (human) (UniProt O14965)
EIF2AK2 (human) = EIF2AK2 (human) (UniProt P19525)
LCK (human) = LCK (human) (UniProt P06239)

Chain of MARK1 (human) (Q9P0L2 whole entry, looked up): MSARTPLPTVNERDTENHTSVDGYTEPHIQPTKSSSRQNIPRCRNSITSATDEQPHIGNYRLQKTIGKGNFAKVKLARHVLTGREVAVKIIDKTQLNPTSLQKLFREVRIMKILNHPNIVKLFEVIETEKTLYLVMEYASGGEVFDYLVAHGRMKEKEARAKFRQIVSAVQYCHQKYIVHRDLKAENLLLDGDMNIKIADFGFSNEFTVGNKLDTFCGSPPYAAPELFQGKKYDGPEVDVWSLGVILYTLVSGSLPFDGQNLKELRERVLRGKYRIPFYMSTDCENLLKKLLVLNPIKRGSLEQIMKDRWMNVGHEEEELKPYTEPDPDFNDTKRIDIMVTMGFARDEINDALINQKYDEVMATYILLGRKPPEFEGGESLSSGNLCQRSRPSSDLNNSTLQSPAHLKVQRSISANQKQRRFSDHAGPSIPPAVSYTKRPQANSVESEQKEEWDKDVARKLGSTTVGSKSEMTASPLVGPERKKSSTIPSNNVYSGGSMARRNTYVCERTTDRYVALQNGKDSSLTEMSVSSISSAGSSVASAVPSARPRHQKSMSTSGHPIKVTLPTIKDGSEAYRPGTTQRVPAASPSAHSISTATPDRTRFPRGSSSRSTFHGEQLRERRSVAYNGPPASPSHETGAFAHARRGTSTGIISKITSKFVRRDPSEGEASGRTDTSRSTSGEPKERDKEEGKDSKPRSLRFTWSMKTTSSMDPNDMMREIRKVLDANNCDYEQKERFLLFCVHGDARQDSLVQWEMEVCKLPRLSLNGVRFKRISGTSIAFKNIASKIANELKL
Chain of PHKG1 (human) (Q16816 whole entry, looked up): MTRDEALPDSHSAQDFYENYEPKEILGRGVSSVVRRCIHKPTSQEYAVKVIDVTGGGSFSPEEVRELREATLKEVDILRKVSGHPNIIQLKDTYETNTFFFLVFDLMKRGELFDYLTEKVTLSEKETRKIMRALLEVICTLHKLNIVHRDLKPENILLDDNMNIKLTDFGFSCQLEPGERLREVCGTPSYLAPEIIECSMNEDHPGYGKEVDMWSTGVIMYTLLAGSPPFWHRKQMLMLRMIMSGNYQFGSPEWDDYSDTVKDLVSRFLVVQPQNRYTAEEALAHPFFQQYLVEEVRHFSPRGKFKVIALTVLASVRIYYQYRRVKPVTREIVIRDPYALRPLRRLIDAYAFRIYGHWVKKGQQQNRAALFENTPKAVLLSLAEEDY
Chain of DAPK3 (human) (O43293 whole entry, looked up): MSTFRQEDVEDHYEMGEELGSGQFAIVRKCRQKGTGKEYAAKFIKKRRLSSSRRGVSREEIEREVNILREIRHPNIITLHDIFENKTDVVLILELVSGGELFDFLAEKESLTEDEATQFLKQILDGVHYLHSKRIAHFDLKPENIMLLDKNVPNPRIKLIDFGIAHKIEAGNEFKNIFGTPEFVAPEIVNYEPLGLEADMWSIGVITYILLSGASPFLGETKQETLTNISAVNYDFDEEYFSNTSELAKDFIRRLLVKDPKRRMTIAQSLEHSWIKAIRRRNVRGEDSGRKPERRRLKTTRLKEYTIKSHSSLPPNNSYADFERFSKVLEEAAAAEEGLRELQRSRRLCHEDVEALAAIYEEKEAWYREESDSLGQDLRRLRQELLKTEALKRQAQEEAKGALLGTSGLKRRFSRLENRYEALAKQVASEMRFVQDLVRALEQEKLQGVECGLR
Chain of CDKL3 (human) (Q8IVW4 whole entry, looked up): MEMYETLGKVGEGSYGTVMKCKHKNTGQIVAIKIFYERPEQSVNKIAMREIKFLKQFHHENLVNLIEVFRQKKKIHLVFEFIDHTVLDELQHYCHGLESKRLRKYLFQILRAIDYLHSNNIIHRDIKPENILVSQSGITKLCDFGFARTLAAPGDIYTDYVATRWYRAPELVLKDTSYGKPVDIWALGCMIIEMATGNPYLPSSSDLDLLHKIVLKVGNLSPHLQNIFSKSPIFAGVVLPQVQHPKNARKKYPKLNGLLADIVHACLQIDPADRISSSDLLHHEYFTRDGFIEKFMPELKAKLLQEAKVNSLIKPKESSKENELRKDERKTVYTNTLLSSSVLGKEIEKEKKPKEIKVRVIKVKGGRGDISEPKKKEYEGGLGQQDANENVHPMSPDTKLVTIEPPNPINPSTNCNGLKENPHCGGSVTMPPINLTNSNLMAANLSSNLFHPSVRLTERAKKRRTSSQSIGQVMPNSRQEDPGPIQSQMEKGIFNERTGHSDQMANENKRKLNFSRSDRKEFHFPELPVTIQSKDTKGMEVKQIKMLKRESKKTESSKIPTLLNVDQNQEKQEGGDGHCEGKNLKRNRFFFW
Chain of CAMK4 (human) (Q16566 whole entry, looked up): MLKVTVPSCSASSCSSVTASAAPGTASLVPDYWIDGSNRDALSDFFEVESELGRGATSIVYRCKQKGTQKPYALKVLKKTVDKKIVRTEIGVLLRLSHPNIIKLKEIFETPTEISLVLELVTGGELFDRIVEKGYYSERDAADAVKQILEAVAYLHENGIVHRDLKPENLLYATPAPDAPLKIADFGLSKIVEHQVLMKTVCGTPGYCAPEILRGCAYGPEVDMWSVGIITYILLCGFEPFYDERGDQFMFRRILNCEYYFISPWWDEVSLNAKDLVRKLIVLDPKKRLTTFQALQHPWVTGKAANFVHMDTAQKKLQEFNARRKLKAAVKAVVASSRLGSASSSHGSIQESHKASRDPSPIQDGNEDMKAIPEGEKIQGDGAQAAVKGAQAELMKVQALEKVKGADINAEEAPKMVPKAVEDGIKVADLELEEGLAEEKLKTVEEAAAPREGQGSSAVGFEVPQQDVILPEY
Chain of PIK3CD (human) (O00329 whole entry, looked up): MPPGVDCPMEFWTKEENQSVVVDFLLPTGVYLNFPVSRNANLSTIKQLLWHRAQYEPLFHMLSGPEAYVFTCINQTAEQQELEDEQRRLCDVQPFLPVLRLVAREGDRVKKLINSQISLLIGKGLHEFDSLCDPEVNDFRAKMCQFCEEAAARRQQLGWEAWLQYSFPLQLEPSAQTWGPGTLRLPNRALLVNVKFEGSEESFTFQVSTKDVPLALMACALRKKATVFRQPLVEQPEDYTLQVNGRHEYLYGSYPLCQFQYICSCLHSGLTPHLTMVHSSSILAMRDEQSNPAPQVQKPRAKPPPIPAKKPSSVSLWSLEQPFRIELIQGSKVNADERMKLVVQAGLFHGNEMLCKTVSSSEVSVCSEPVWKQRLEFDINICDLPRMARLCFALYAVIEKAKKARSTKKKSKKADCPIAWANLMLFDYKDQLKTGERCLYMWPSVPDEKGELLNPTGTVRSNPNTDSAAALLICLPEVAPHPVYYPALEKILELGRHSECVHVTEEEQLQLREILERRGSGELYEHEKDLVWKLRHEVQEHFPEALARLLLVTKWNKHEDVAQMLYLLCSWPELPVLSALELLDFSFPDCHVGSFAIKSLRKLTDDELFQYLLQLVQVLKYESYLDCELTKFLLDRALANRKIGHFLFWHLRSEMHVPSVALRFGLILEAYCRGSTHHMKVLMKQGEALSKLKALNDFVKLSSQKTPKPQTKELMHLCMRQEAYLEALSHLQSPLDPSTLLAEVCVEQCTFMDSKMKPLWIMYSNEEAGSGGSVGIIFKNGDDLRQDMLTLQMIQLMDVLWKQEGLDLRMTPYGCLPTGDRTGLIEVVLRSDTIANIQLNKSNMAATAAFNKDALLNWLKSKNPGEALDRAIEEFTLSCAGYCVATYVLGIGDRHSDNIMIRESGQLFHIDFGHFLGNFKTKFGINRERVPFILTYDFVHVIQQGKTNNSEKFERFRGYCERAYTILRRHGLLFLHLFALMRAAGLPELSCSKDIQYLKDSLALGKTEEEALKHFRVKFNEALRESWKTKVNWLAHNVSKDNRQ
Chain of MAP3K3 (human) (Q99759 whole entry, looked up): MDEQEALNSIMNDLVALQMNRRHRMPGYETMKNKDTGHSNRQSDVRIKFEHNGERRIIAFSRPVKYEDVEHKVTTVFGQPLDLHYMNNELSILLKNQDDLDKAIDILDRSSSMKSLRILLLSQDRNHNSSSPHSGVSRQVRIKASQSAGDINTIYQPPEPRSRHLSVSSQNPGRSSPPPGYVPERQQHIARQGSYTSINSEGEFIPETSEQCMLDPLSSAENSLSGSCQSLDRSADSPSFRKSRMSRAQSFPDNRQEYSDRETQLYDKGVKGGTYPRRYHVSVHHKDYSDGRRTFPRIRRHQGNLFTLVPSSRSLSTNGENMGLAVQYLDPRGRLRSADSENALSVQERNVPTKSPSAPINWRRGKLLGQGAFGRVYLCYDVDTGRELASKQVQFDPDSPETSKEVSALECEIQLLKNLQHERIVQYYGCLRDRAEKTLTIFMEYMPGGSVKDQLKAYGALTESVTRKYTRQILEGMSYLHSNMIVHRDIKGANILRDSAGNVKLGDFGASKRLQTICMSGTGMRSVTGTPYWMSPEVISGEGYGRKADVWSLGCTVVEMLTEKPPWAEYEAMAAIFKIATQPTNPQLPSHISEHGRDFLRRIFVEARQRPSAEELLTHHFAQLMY
Chain of AURKA (human) (O14965 whole entry, looked up): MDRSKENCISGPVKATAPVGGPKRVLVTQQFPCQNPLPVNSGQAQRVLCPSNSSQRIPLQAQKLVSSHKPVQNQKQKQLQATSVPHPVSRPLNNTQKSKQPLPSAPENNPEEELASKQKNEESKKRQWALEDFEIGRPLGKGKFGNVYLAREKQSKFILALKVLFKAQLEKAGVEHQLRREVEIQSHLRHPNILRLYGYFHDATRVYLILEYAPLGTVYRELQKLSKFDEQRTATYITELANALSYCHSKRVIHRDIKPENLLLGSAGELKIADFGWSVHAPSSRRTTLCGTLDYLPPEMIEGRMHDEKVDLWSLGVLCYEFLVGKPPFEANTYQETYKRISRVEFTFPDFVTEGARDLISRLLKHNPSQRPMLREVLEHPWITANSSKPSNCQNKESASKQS

`O=c1cc(N2CCOCC2)oc2c(-c3cccc4c3sc3ccccc34)cccc12` was tested, and the kinase still bound, per cent of control (CDKL3 (human)) was 100%, the kinase still bound, per cent of control (PRKAA2 (human)) was 100% and the kinase still bound, per cent of control (MST4 (human)) was 95%. For the same compound, the kinase still bound, per cent of control (ADCK4 (human)) was 73%, the kinase still bound, per cent of control (RIPK1 (human)) was 100% and the kinase still bound, per cent of control (KIT (human)) was 80%. For the same compound, the kinase still bound, per cent of control (DCLK1 (human)) was 84%, the kinase still bound, per cent of control (MYO3B (human)) was 100% and the kinase still bound, per cent of control (CDK4 CCND3 (human)) was 100%. For the same compound, the kinase still bound, per cent of control (RPS6KB1 (human)) was 67%, the kinase still bound, per cent of control (MAP3K3 (human)) was 92% and the kinase still bound, per cent of control (BTK (human)) was 100%. It also gave a kinase still bound, per cent of control (EPHA1 (human)) of 92%, a kinase still bound, per cent of control (ACVR2A (human)) of 96% and a kinase still bound, per cent of control (GSK3A (human)) of 78%. The kinase still bound, per cent of control (MAPK1 (human)) was 95%, the kinase still bound, per cent of control (CDK15 (human)) was 85% and the kinase still bound, per cent of control (STK17A (human)) was 95%. It also gave a kinase still bound, per cent of control (DAPK3 (human)) of 92%, a kinase still bound, per cent of control (FES (human)) of 93% and a kinase still bound, per cent of control (CAMK2G (human)) of 86%. It also gave a kinase still bound, per cent of control (FGFR2 (human)) of 82%, a kinase still bound, per cent of control (MAP2K4 (human)) of 100% and a kinase still bound, per cent of control (GAK (human)) of 89%. It also gave a kinase still bound, per cent of control (PRKX (human)) of 89%, a kinase still bound, per cent of control [1] of 67% and a kinase still bound, per cent of control (MAP2K3 (human)) of 91%. It also gave a kinase still bound, per cent of control (MINK1 (human)) of 100%, a kinase still bound, per cent of control (MARK1 (human)) of 100% and a kinase still bound, per cent of control (PIK3CD (human)) of 3.3%. For the same compound, the kinase still bound, per cent of control (MAST1 (human)) was 100%, the kinase still bound, per cent of control (CAMK2B (human)) was 80% and the kinase still bound, per cent of control (GRK7 (human)) was 92%. It also gave a kinase still bound, per cent of control (CAMK4 (human)) of 100%, a kinase still bound, per cent of control (PHKG1 (human)) of 100% and a kinase still bound, per cent of control (RIOK3 (human)) of 100%. It also gave a kinase still bound, per cent of control (STK38L (human)) of 95%, a kinase still bound, per cent of control (AURKA (human)) of 98% and a kinase still bound, per cent of control (EIF2AK2 (human)) of 72%. For the same compound, the kinase still bound, per cent of control (LCK (human)) was 90%.
`CNC(=O)c1cc(Oc2ccc(NC(=O)Nc3ccc(Cl)c(C(F)(F)F)c3)cc2)ccn1` showed a kinase still bound, per cent of control (CDKL3 (human)) of 0.6%, a kinase still bound, per cent of control (PRKAA2 (human)) of 74% and a kinase still bound, per cent of control (MST4 (human)) of 100%. The kinase still bound, per cent of control (ADCK4 (human)) was 100%, the kinase still bound, per cent of control (RIPK1 (human)) was 81% and the kinase still bound, per cent of control (KIT (human)) was 0%. For the same compound, the kinase still bound, per cent of control (DCLK1 (human)) was 98%, the kinase still bound, per cent of control (MYO3B (human)) was 28% and the kinase still bound, per cent of control (CDK4 CCND3 (human)) was 79%. It also gave a kinase still bound, per cent of control (RPS6KB1 (human)) of 63%, a kinase still bound, per cent of control (MAP3K3 (human)) of 86% and a kinase still bound, per cent of control (EPHA1 (human)) of 20%. For the same compound, the kinase still bound, per cent of control (ACVR2A (human)) was 100%, the kinase still bound, per cent of control (GSK3A (human)) was 67% and the kinase still bound, per cent of control (MAPK1 (human)) was 100%. The kinase still bound, per cent of control (CDK15 (human)) was 19%, the kinase still bound, per cent of control (STK17A (human)) was 45% and the kinase still bound, per cent of control (DAPK3 (human)) was 88%. For the same compound, the kinase still bound, per cent of control (FES (human)) was 74%, the kinase still bound, per cent of control (FGFR2 (human)) was 14% and the kinase still bound, per cent of control (MAP2K4 (human)) was 100%. The kinase still bound, per cent of control (GAK (human)) was 80%, the kinase still bound, per cent of control (PRKX (human)) was 100% and the kinase still bound, per cent of control [1] was 80%. It also gave a kinase still bound, per cent of control (MAP2K3 (human)) of 97%, a kinase still bound, per cent of control (MINK1 (human)) of 46% and a kinase still bound, per cent of control (MARK1 (human)) of 100%. It also gave a kinase still bound, per cent of control (MAST1 (human)) of 100%, a kinase still bound, per cent of control (CAMK2B (human)) of 84% and a kinase still bound, per cent of control (GRK7 (human)) of 100%. It also gave a kinase still bound, per cent of control (CAMK4 (human)) of 100%, a kinase still bound, per cent of control (PHKG1 (human)) of 90% and a kinase still bound, per cent of control (RIOK3 (human)) of 100%. The kinase still bound, per cent of control (STK38L (human)) was 100%, the kinase still bound, per cent of control (AURKA (human)) was 80% and the kinase still bound, per cent of control (EIF2AK2 (human)) was 73%.
`C[C@@H](Oc1cc(-c2cnn(C3CCNCC3)c2)cnc1N)c1c(Cl)ccc(F)c1Cl` was tested, and the kinase still bound, per cent of control (CDKL3 (human)) was 68%, the kinase still bound, per cent of control (PRKAA2 (human)) was 17% and the kinase still bound, per cent of control (MST4 (human)) was 13%. It also gave a kinase still bound, per cent of control (ADCK4 (human)) of 3.4%, a kinase still bound, per cent of control (RIPK1 (human)) of 5% and a kinase still bound, per cent of control (KIT (human)) of 43%. For the same compound, the kinase still bound, per cent of control (DCLK1 (human)) was 2%, the kinase still bound, per cent of control (MYO3B (human)) was 100% and the kinase still bound, per cent of control (CDK4 CCND3 (human)) was 39%. It also gave a kinase still bound, per cent of control (RPS6KB1 (human)) of 1.8%, a kinase still bound, per cent of control (EPHA1 (human)) of 0.85% and a kinase still bound, per cent of control (ACVR2A (human)) of 30%. The kinase still bound, per cent of control (GSK3A (human)) was 100%, the kinase still bound, per cent of control (MAPK1 (human)) was 100% and the kinase still bound, per cent of control (CDK15 (human)) was 73%. For the same compound, the kinase still bound, per cent of control (STK17A (human)) was 100%, the kinase still bound, per cent of control (DAPK3 (human)) was 94% and the kinase still bound, per cent of control (CAMK2G (human)) was 100%. It also gave a kinase still bound, per cent of control (FGFR2 (human)) of 35%, a kinase still bound, per cent of control (MAP2K4 (human)) of 93% and a kinase still bound, per cent of control (GAK (human)) of 79%. For the same compound, the kinase still bound, per cent of control (PRKX (human)) was 94%, the kinase still bound, per cent of control [1] was 1.4% and the kinase still bound, per cent of control (MAP2K3 (human)) was 42%. It also gave a kinase still bound, per cent of control (MINK1 (human)) of 18%, a kinase still bound, per cent of control (MARK1 (human)) of 36% and a kinase still bound, per cent of control (PIK3CD (human)) of 100%. It also gave a kinase still bound, per cent of control (MAST1 (human)) of 100%, a kinase still bound, per cent of control (GRK7 (human)) of 42% and a kinase still bound, per cent of control (CAMK4 (human)) of 100%. It also gave a kinase still bound, per cent of control (PHKG1 (human)) of 100%, a kinase still bound, per cent of control (RIOK3 (human)) of 3.4% and a kinase still bound, per cent of control (STK38L (human)) of 95%. The kinase still bound, per cent of control (EIF2AK2 (human)) was 43% and the kinase still bound, per cent of control (LCK (human)) was 0.15%.
`COc1cc2ncn(-c3cc(OCc4ccccc4C(F)(F)F)c(C(N)=O)s3)c2cc1OC` was tested, and the kinase still bound, per cent of control (CDKL3 (human)) was 100%, the kinase still bound, per cent of control (PRKAA2 (human)) was 92% and the kinase still bound, per cent of control (MST4 (human)) was 85%. The kinase still bound, per cent of control (ADCK4 (human)) was 71%, the kinase still bound, per cent of control (RIPK1 (human)) was 74% and the kinase still bound, per cent of control (KIT (human)) was 30%. The kinase still bound, per cent of control (DCLK1 (human)) was 49%, the kinase still bound, per cent of control (MYO3B (human)) was 100% and the kinase still bound, per cent of control (CDK4 CCND3 (human)) was 100%. The kinase still bound, per cent of control (RPS6KB1 (human)) was 65%, the kinase still bound, per cent of control (MAP3K3 (human)) was 74% and the kinase still bound, per cent of control (BTK (human)) was 86%. The kinase still bound, per cent of control (EPHA1 (human)) was 84%, the kinase still bound, per cent of control (ACVR2A (human)) was 79% and the kinase still bound, per cent of control (GSK3A (human)) was 100%. It also gave a kinase still bound, per cent of control (MAPK1 (human)) of 86%, a kinase still bound, per cent of control (STK17A (human)) of 100% and a kinase still bound, per cent of control (DAPK3 (human)) of 19%. The kinase still bound, per cent of control (FES (human)) was 87%, the kinase still bound, per cent of control (CAMK2G (human)) was 83% and the kinase still bound, per cent of control (MAP2K4 (human)) was 100%. The kinase still bound, per cent of control (GAK (human)) was 4.1%, the kinase still bound, per cent of control (PRKX (human)) was 98% and the kinase still bound, per cent of control [1] was 48%. For the same compound, the kinase still bound, per cent of control (MAP2K3 (human)) was 78%, the kinase still bound, per cent of control (MINK1 (human)) was 63% and the kinase still bound, per cent of control (MARK1 (human)) was 82%. It also gave a kinase still bound, per cent of control (PIK3CD (human)) of 78%, a kinase still bound, per cent of control (MAST1 (human)) of 75% and a kinase still bound, per cent of control (CAMK2B (human)) of 75%. It also gave a kinase still bound, per cent of control (GRK7 (human)) of 52%, a kinase still bound, per cent of control (CAMK4 (human)) of 100% and a kinase still bound, per cent of control (PHKG1 (human)) of 88%. The kinase still bound, per cent of control (RIOK3 (human)) was 4.2%, the kinase still bound, per cent of control (STK38L (human)) was 100% and the kinase still bound, per cent of control (AURKA (human)) was 100%. For the same compound, the kinase still bound, per cent of control (EIF2AK2 (human)) was 78% and the kinase still bound, per cent of control (LCK (human)) was 34%.
